# PubChem BioAssay (NCI)
#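 These data come from cells grown in 96-well plates and exposed to compound for 48 hours at five concentrations. TGI denotes the concentration required for complete inhibition of growth.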
# Legend:
# Experiment in all cases: NCI tumour cell line growth inhibition, 48 h
# [1] = system: CAKI-1 renal
# [2] = system: HOP-62 NSCLC
# [3] = system: LOX IMVI melanoma
# [4] = system: M14 melanoma
# [5] = system: MCF7 breast
# [6] = system: NCI-H23 lung
# [7] = system: SF-295 CNS
# [8] = system: SNB-19 CNS
# [9] = system: T-47D breast
# [10] = system: U251 CNS
Compound,TGI [1] [µM],TGI [2] [µM],TGI [3] [µM],TGI [4] [µM],TGI [5] [µM],TGI [6] [µM],TGI [7] [µM],TGI [8] [µM],TGI [9] [µM],TGI [10] [µM]
OC(NN=C1CCCC1)(C(F)(F)Cl)C(F)(F)Cl,> 10,> 10,> 10,> 10,> 10,> 10,> 10,> 10,> 10,> 10
O=C1NC(N2CCOCC2)=N/C1=C\c1ccc(O)cc1,> 100,> 100,> 100,> 100,> 100,> 100,> 100,> 100,> 100,> 100
CCCCCCCCC#CCCCCCCCCCC[C@@H]1C(=O)O[C@H](C)[C@@H]1O (tested in a mixture with another compound),29.1,39,28.8,41,50.5,22.3,65.4,38.1,> 100,> 100
Cc1ccc(S(=O)(=O)NC(=O)C2=C3SCCN3C(=O)N(S(=O)(=O)c3ccc(C)cc3)C2c2ccccc2)cc1 (stereo not given),> 100,> 100,> 100,> 100,90.7,> 100,> 100,> 100,> 100,> 100
CC(=O)C(C)(C)CCC(C)(C)C(C)=O,> 100,> 100,> 100,> 100,> 100,> 100,> 100,> 100,> 100,> 100
CC(C)=CCC[C@@H](C)C1=C(O)C(Nc2ccccc2I)=C(C)C(=O)C1=O,41.3,23.1,> 75,> 58.9,> 75,38.9,> 38.9,> 75,47.5,> 75
N#Cc1c(N)nc2c3c1NC(=O)C(C(N)=O)C3c1ccccc1O2 (stereo not given),> 100,> 100,> 100,> 100,> 100,> 100,> 100,> 100,> 100,> 100
CC(=O)OCC1OC(n2c(C)c(C)c(C)c(C#N)c2=S)C(OC(C)=O)C(OC(C)=O)C1OC(C)=O (stereo not given),> 100,49.8,> 100,> 100,> 100,> 100,61.4,> 100,> 100,> 100
Cc1ncc(COP(=O)(O)O)c(/C=C2\SC(=S)NC2=O)c1O,> 100,> 100,> 100,> 100,> 100,> 100,> 100,> 100,> 100,> 100
Clc1ccc(C2=CCN3CC=C(c4ccc(Cl)cc4)C23)cc1,27.4,26.7,20.6,22.6,28.6,26.8,28.9,31.6,29.2,23.7
COC1=CC(=O)N(C)C(O)C1(C#N)OC1OC(CO)C(O)C(O)C1O (stereo not given),> 100,> 100,> 100,> 100,> 100,> 100,> 100,> 100,> 100,> 100
